Results from patent US11045457B2, “Piperidinyl-3-(aryloxy)propanamides and propanoates” (priority 2018, dated 2021).

Columns and labels:
SSTR4 [1] = molecular target: T1, SSTR4 (Homo sapiens (Human), UniProt P31391); experiment: Inhibition of forskolin stimulated cAMP in CHO-K1 cells overexpressing SSTR4; assay type: cell-based; details: for EC50: read-out: SSTR4 Activity pEC50 (converted)
How it was run: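 Read-out is a HTRF LANCE Ultra cAMP competition using Eu-labelled streptavidin and biotin-cAMP, incubated 60 min at room temperature. It followed a 30 min room-temperature exposure of Kreb's Ringer-washed cells to compound plus forskolin. Potency is expressed as pEC50.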

SSTR4 [2] = molecular target: T1, SSTR4; experiment: SSTR4 I-125 somatostatin competition binding assay (membranes from CHO-K1 cells overexpressing SSTR4); details: competition with I-125 labeled somatostatin; for IC50: read-out: SSTR4 Binding pIC50 (converted)
Method: Membranes from CHO-K1 cells overexpressing SSTR4 are purchased from Perkin Elmer (catalog number ES-524-M400UA). Test compounds are suspended in DMSO and then diluted in assay buffer (25 mM HEPES pH 7.4, 10 mM MgCl2, 1 mM CaCl2), 0.5% BSA) plus 0.2 nM I-125 labeled somatostatin (Perkin Elmer catalog number NEX389). […] Then 1 μg of SSTR4 membranes in 50 μL assay buffer are added per well. The Plate is incubated for 60 minutes at room temperature. FilterMat A filters (Perkin Elmer catalog number 1450-421) are pre-soaked in 0.5% PEI (Sigma catalog number P3143). The contents of the assay plate are transferred to filters with a TomTech harvester and washed 5 times with 20 mM HEPES, 100 mM NaCl. The filters are dried in a microwave oven then transferred to sample bag containing a scintillator sheet (Perkin Elmer catalog number 1450-441). The scintillator sheets are melted to filters using a heat block. The filters are then read in a MicroBeta scintillation counter. Binding Ki curves are generated using Activity Base for Screening Data Management and the results are reported as pIC50.

SSTR1 = SSTR1 (Homo sapiens (Human), UniProt P30872); experiment: SSTR1 I-125 somatostatin competition binding assay for selectivity versus SSTR4 (membranes from CHO-K1 cells overexpressing SSTR1); details: for SSTR1 Binding pIC50: competition with I-125 labeled somatostatin, CHO-K1 SSTR1 membranes;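 as to all read-outs here: Filter-based radioligand binding, bound label counted by scintillation after 60 min incubation at room temperature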
SSTR1, sequence (P30872 whole entry): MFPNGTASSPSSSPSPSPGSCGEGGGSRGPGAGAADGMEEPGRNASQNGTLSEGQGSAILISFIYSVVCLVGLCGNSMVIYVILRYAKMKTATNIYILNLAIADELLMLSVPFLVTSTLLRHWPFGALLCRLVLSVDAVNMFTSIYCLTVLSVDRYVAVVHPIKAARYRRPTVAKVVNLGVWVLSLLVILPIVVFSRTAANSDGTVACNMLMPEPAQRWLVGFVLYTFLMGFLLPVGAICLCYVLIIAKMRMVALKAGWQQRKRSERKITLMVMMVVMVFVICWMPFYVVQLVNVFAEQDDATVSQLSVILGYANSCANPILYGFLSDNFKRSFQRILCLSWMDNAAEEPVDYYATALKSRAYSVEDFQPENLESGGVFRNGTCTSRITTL
Method: Membranes from CHO-K1 cells overexpressing SSTR1 are purchased from Perkin Elmer (catalog number ES-520-M400UA). […] Then 10 μg of SSTR1 membranes in 50 μL assay buffer are added per well. The plate is incubated for 60 minutes at room temperature. […] The contents of the assay plate are transferred to filters with a TomTech harvester and washed 5 times with 20 mM HEPES, 100 mM NaCl. […] The scintillator sheets are melted to the filters using a heat block. The filters are then read in a MicroBeta scintillation counter. Binding Ki curves are generated using Activity Base for Screening Data Management and the results are reported as pIC50.

T1 sequence (P31391 whole entry): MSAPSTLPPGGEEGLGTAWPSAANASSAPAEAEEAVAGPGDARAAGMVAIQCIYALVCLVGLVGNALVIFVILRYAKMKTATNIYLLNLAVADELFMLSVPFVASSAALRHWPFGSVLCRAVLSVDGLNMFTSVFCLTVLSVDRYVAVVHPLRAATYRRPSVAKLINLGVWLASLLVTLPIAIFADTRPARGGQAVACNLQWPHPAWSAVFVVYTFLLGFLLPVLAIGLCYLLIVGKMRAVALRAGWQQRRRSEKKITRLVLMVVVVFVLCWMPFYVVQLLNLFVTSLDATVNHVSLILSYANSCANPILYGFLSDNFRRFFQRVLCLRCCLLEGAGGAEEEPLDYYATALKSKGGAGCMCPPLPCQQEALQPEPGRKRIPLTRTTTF

Row | EC50 (SSTR4 [1]) [nM] | IC50 (SSTR4 [2]) [nM] | IC50 (SSTR1) [nM] | Compound | SSTR4 Activity pEC50 (SSTR4 [1]) | SSTR4 Binding pIC50 (SSTR4 [2]) | SSTR1 Binding pIC50 (SSTR1)
1 | 20 | 200 | 126 | CN1C[C@@H](NC(=O)C(C)(C)COc2ncccc2C2CC2)[C@H](c2ccc(C(F)(F)F)nc2)C1 (racemic) [Example 58, trans-3-((3-cyclopropylpyridin-2-yl)oxy)-2,2-dimethyl-N-(1-methyl-4-(6-(trifluoromethyl)pyridin-3-yl)pyrrolidin-3-yl)propanamide] | – | – | –
2 | – | – | – | CN1CCC(NC(=O)C(C)(C)COc2ncccc2C(F)(F)F)C2(CC2)C1 (stereo not drawn) [Example 114, 2,2-dimethyl-N-(5-methyl-5-azaspiro[2.5]octan-8-yl)-3-((3-(trifluoromethyl)pyridin-2-yl)oxy)propanamide] | 8.0 | 6.9 | 4.6
3 | 15.8 | 398 | 3160 | C[C@@H]1CN(C)C[C@H]1NC(=O)C(C)(C)COc1ncccc1C1CC1 (racemic) [Example 181, 3-((3-cyclopropylpyridin-2-yl)oxy)-N-(trans-1,4-dimethylpyrrolidin-3-yl)-2,2-dimethylpropanamide] | – | – | –
4 | – | – | – | C[C@@H]1C[C@H](NC(=O)C(C)(C)COc2ncccc2C2CC2)CCN1C [Example 147, 3-((3-cyclopropylpyridin-2-yl)oxy)-N-((2R,4R)-1,2-dimethylpiperidin-4-yl)-2,2-dimethylpropanamide] | 8.6 | 7.5 | 5.3
5 | – | – | – | CN1CC[C@H](NC(=O)C(C)(C)COc2ccccc2Cl)[C@@H](F)C1 [Example 188, 3-(2-chlorophenoxy)-N-((3S,4S)-3-fluoro-1-methylpiperidin-4-yl)-2,2-dimethylpropanamide] | 8.2 | 7.6 | 5.0
6 | – | – | – | C[C@H]1CNCC[C@@H]1NC(=O)C(F)(F)COc1ccccc1Cl [Example 216, 3-(2-chlorophenoxy)-2,2-difluoro-N-((3S,4S)-3-methylpiperidin-4-yl)propanamide] | 9.4 | 7.7 | 4.8
7 | – | – | – | CN1CC[C@@H](NC(=O)C(C)(C)COc2ccccc2Cl)C1 [Example 68, (R)-3-(2-chlorophenoxy)-2,2-dimethyl-N-(1-methylpyrrolidin-3-yl)propanamide] | 7.5 | 6.8 | 4.6
8 | – | – | – | C[C@H]1CNCC[C@@H]1NC(=O)C(F)(F)COc1ncccc1OC(F)(F)F [Example 210, 2,2-difluoro-N-((3S,4S)-3-methylpiperidin-4-yl)-3-((3-(trifluoromethoxy)pyridin-2-yl)oxy)propanamide] | 9.1 | 7.6 | 4.5
9 | – | – | – | CN1CC[C@@H](NC(=O)C(C)(C)COc2ccccc2C(F)(F)F)C1 [Example 65, (R)-2,2-dimethyl-N-(1-methylpyrrolidin-3-yl)-3-(2-(trifluoromethyl)phenoxy)propanamide] | 7.9 | 7.0 | 5.1
10 | – | – | – | CN1C[C@H](NC(=O)C(C)(C)COc2ncccc2C(F)(F)F)C2(CC2)C1 [Example 148, (R)-2,2-dimethyl-N-(5-methyl-5-azaspiro[2.4]heptan-7-yl)-3-((3-(trifluoromethyl)pyridin-2-yl)oxy)propanamide] | 8.1 | 7.4 | 5.8
11 | – | – | – | Cc1cccnc1OCC(C)(C)C(=O)N[C@@H]1CCN(C)C[C@H]1C (relative stereo) [Example 17, trans-N-(1,3-dimethylpiperidin-4-yl)-2,2-dimethyl-3-((3-methylpyridin-2-yl)oxy)propanamide] | 7.7 | 6.7 | 4.7
12 | – | – | – | CN1CC[C@@H](NC(=O)C(C)(C)COc2ncccc2C2CC2)C1 [Example 53, (R)-3-((3-cyclopropylpyridin-2-yl)oxy)-2,2-dimethyl-N-(1-methylpyrrolidin-3-yl)propanamide] | 7.4 | 6.6 | 4.6
13 | 1.58 | 50.1 | 794 | CN1CC[C@@H](NC(=O)C(C)(C)COc2ncccc2C(F)(F)F)[C@H](c2cnn(C(F)F)c2)C1 (racemic) [Example 125, trans-N-(3-(1-(difluoromethyl)-1H-pyrazol-4-yl)-1-methylpiperidin-4-yl)-2,2-dimethyl-3-((3-(trifluoromethyl)pyridin-2-yl)oxy)propanamide] | – | – | –
14 | 12.6 | 79.4 | 7940 | CC[C@@H]1CN(C)CC[C@H]1NC(=O)C(C)(C)COc1ncccc1C (racemic) [Example 127, trans-N-(3-ethyl-1-methylpiperidin-4-yl)-2,2-dimethyl-3-((3-methylpyridin-2-yl)oxy)propanamide] | – | – | –
15 | – | – | – | CN1CCC(NC(=O)C(C)(C)COc2ccccc2C2CC2)CC1 [Example 70, 3-(2-cyclopropylphenoxy)-2,2-dimethyl-N-(1-methylpiperidin-4-yl)propanamide] | 8.4 | 7.6 | 5.5
16 | 126 | 1580 | 50100 | CN(C(=O)C(C)(C)COc1ncccc1C(F)(F)F)[C@@H]1CCNC[C@H]1c1ccccc1 (racemic) [Example 162, trans-N,2,2-trimethyl-N-(3-phenylpiperidin-4-yl)-3-((3-(trifluoromethyl)pyridin-2-yl)oxy)propanamide] | – | – | –
17 | – | – | – | Cc1cccnc1OCC(C)(C)C(=O)N[C@@H]1CN(C)C[C@H]1c1cnn(C)c1 (relative stereo) [Example 18, trans-2,2-dimethyl-N-(1-methyl-4-(1-methyl-1H-pyrazol-4-yl)pyrrolidin-3-yl)-3-((3-methylpyridin-2-yl)oxy)propanamide] | 7.1 | 6.0 | 5.1
18 | – | – | – | Cc1cccnc1OCC(C)(C)C(=O)N[C@H]1CCN(C)C[C@@H]1C [Example 143, N-((3S,4S)-1,3-dimethylpiperidin-4-yl)-2,2-dimethyl-3-((3-methylpyridin-2-yl)oxy)propanamide] | 7.9 | 6.9 | 4.8
19 | – | – | – | CN1C[C@@H](NC(=O)C(C)(C)COc2ncccc2C(F)(F)F)[C@H](c2cnn(C)c2)C1 (relative stereo) [Example 19, trans-2,2-dimethyl-N-(1-methyl-4-(1-methyl-1H-pyrazol-4-yl)pyrrolidin-3-yl)-3-((3-(trifluoromethyl)pyridin-2-yl)oxy)propanamide] | 7.7 | 6.8 | 6.1
20 | – | – | – | Cc1nn(C)cc1[C@@H]1CN(C)C[C@H]1NC(=O)C(C)(C)COc1ncccc1C1CC1 (relative stereo) [Example 24, trans-3-((3-cyclopropylpyridin-2-yl)oxy)-N-(4-(1,3-dimethyl-1H-pyrazol-4-yl)-1-methylpyrrolidin-3-yl)-2,2-dimethylpropanamide] | 8.3 | 7.0 | 6.4
